Like-named read-outs stand apart in the source and are kept apart here.
Tests used:
Assay type in all cases: in vivo
[1] = test system: Amaranthus retroflexus (AMARE); test: Pre-emergence herbicidal action against AMARE; conditions: visual scoring after about 3 weeks vs untreated controls
In short: (§1)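 Greenhouse pot trial: seeds sown, soil-covered, sprayed before emergence with compound in water (0.5% additive; 600 l/ha; ≤320 g/ha). Scoring visual, ~3 weeks, 0–100% scale vs untreated.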

[2] = test system: Echinochloa crus-galli (ECHCG); test: Post-emergence herbicidal action against ECHCG
In short: (§2)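 Post-emergence greenhouse spray, one-leaf stage, 600 l/ha water plus 0.5% additive; WP or EC formulations; application rates 320 g/ha or lower. Visual % damage vs untreated controls at ~3 weeks.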

[3] = test system: Pharbitis purpurea (PHBPU); test: Pre-emergence herbicidal action against PHBPU; conditions: dosage 320 g/ha
In short: as §1

Setaria viridis (SETVI) [4] = test: Pre-emergence herbicidal action against SETVI
In short: as §1

Lolium rigidum (LOLRI) [5] = test: Pre-emergence herbicidal action against LOLRI; conditions: dosage 320 g/ha
In short: as §1

[6] = test system: Verconica persica (VERPE); test: Post-emergence herbicidal action against VERPE; conditions: 320 g/ha, VERPE
In short: as §2

[7] = test system: Echinochloa crus-galli (ECHCG); test: Pre-emergence herbicidal action against ECHCG; conditions: dosage 320 g/ha
In short: as §1

[8] = test system: Pharbitis purpurea (PHBPU); test: Post-emergence herbicidal action against PHBPU
In short: as §2

[9] = test system: Triticum aestivum (TRZAS); conditions: pre-emergence, 80 g/ha, crop plant compatibility, in comparison to untreated controls
In short: (§3)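 Scoring: visual, % of untreated control, about 3 weeks after a pre-emergence application to the soil surface. Application used WP or EC formulations diluted in water with 0.5% additive at 600 l/ha; dosage levels are marked by suffixes a, b and c.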

Oryza sativa (ORYSA) [10] = conditions: crop plant compatibility
In short: (§4)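 Percent effect on the crop was judged by eye against untreated controls, where 0% means like control and 100% means dead plants. Plants had been sprayed post-emergence at the one-leaf stage and then kept under optimum greenhouse conditions for about 3 weeks.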

[11] = test system: Triticum aestivum (TRZAS); conditions: crop plant compatibility, effect vs untreated controls
In short: as §4

Zea mays (ZEAMX) [12] = conditions: for Post-emergence action against ZEAMX in %: crop plant compatibility, 80 g/ha, effect vs untreated controls
In short: as §4

[13] = test system: Digitaria sanguinalis (DIGSA); test: Pre-emergence herbicidal action against DIGSA
In short: as §1

[14] = test system: Abutilon theophrasti (ABUTH); test: Post-emergence herbicidal action against ABUTH; conditions: visual rating about 3 weeks after treatment vs untreated controls (100% = plants have died, 0% = like control plants)
In short: as §2

Viola tricolor (VIOTR) [15] = test: Pre-emergence herbicidal action against VIOTR
In short: as §1

Setaria viridis (SETVI) [16] = test: Post-emergence herbicidal action against SETVI
In short: as §2

[17] = test system: Polygonum convolvulus (POLCO); test: Pre-emergence herbicidal action against POLCO
In short: as §1

[18] = test system: Amaranthus retroflexus (AMARE); test: Post-emergence herbicidal action against AMARE
In short: as §2

[19] = test system: Matricaria inodora (MATIN); test: Pre-emergence herbicidal action against MATIN
In short: as §1

Avena fatua (AVEFA) [20] = test: Pre-emergence herbicidal action against AVEFA; conditions: 320 g/ha, visual scoring after about 3 weeks vs untreated controls
In short: as §1

Zea mays (ZEAMX) [21] = conditions: pre-emergence, 80 g/ha, crop plant compatibility, in comparison to untreated controls
In short: as §3

[22] = test system: Alopecurus myosuroides (ALOMY); test: Post-emergence herbicidal action against ALOMY; conditions: visual rating about 3 weeks after treatment vs untreated controls (100% = plants have died, 0% = like control plants)
In short: as §2

[23] = test system: Digitaria sanguinalis (DIGSA); test: Post-emergence herbicidal action against DIGSA; conditions: 80 g/ha, visual rating about 3 weeks after treatment
In short: as §2

[24] = test system: Abutilon theophrasti (ABUTH); test: Pre-emergence herbicidal action against ABUTH; conditions: Dosage column 320 g/ha (title prints 3200 g/ha); scored visually after about 3 weeks; 100% = plants have died
In short: as §1

[25] = test system: Polygonum convolvulus (POLCO); test: Post-emergence herbicidal action against POLCO
In short: as §2

[26] = test system: Alopecurus myosuroides (ALOMY); test: Pre-emergence herbicidal action against ALOMY; conditions: scored visually after about 3 weeks, 100% = plants have died
In short: as §1

Viola tricolor (VIOTR) [27] = test: Post-emergence herbicidal action against VIOTR
In short: as §2

[28] = test system: Verconica persica (VERPE); test: Pre-emergence herbicidal action against VERPE; conditions: dosage 320 g/ha
In short: as §1

Oryza sativa (ORYSA) [29] = conditions: pre-emergence, 80 g/ha, crop plant compatibility, in comparison to untreated controls
In short: as §3

Avena fatua (AVEFA) [30] = test: Post-emergence herbicidal action against AVEFA; conditions: 320 g/ha, visual rating about 3 weeks after treatment
In short: as §2

Lolium rigidum (LOLRI) [31] = test: Post-emergence herbicidal action against LOLRI; conditions: dosage 320 g/ha
In short: as §2

[32] = test system: Matricaria inodora (MATIN); test: Post-emergence herbicidal action against MATIN; conditions: dosage 320 g/ha
In short: as §2

[33] = 80 g/ha, effect in comparison to untreated controls
[34] = 80 g/ha, visual rating about 3 weeks after treatment vs untreated controls (100% = plants have died, 0% = like control plants)
[35] = 320 g/ha, visual rating about 3 weeks after treatment
[36] = 320 g/ha, effect in comparison to untreated controls

SMILES | Pre-emergence action against AMARE in % ([1]; 320 g/ha) [%] | Post-emergence action against ECHCG in % ([2]; dosage 320 g/ha) [%] | Pre-emergence action against PHBPU in % [3] [%] | Pre-emergence action against SETVI in % (Setaria viridis (SETVI) [4]; dosage 320 g/ha) [%] | Pre-emergence action against LOLRI in % (Lolium rigidum (LOLRI) [5]) [%] | Pre-emergence action against ECHCG in % [7] [%] | Post-emergence action against ORYSA in % (Oryza sativa (ORYSA) [10]; [33]) [%] | Pre-emergence action against VIOTR in % (Viola tricolor (VIOTR) [15]; 320 g/ha, Viola tricolor) [%] | Pre-emergence action against VIOTR in % (Viola tricolor (VIOTR) [15]; dosage 80 g/ha) [%] | Pre-emergence action against POLCO in % ([17]; dosage 320 g/ha) [%] | Post-emergence action against AMARE in % [18, 34] [%] | Pre-emergence action against MATIN in % ([19]; dosage 320 g/ha) [%] | Pre-emergence action against AVEFA in % (Avena fatua (AVEFA) [20]) [%] | Pre-emergence action against ZEAMX in % (Zea mays (ZEAMX) [21]) [%] | Pre-emergence action against ABUTH [24] [%] | Post-emergence action against POLCO in % ([25]; dosage 80 g/ha) [%] | Pre-emergence action against ALOMY ([26]; 320 g/ha) [%] | Post-emergence action against VIOTR in % (Viola tricolor (VIOTR) [27]; 80 g/ha) [%] | Pre-emergence action against AMARE in % ([1]; 80 g/ha) [%] | Post-emergence action against AMARE in % [18, 35] [%] | other results
COCCOC(=O)COc1nn(-c2cccc(C)n2)c(-c2ccc(F)nc2)c1Br [Example I-277] | 80 | 80 | 80 | 80 | 90 | 80 | 10 | – | – | – | – | – | – | – | – | – | – | – | – | – | Post-emergence action against VERPE in % [6]: 80%; Post-emergence action against PHBPU in % ([8]; dosage 320 g/ha): 80%; Pre-emergence action against TRZAS in % [9]: 0%; Post-emergence action against TRZAS in % ([11]; 80 g/ha): 0%; Post-emergence action against TRZAS in % ([11]; 320 g/ha): 20%; Post-emergence action against ZEAMX in % (Zea mays (ZEAMX) [12]): 10%
CN(C)S(=O)(=O)NC(=O)COc1nn(-c2ncccc2F)c(-c2ccc(F)nc2)c1Br [Example I-36] | 100 | – | 100 | 100 | 100 | 100 | 0 | 100 | 100 | 90 | 80 | 100 | 90 | 0 | 80 | 80 | 100 | 90 | – | – | Pre-emergence action against DIGSA in % ([13]; 80 g/ha, visual scoring after about 3 weeks vs untreated controls): 100%; Pre-emergence action against DIGSA in % ([13]; dosage 320 g/ha): 100%; Post-emergence action against ABUTH in % ([14]; 80 g/ha): 80%; Post-emergence action against SETVI in % (Setaria viridis (SETVI) [16]; dosage 80 g/ha): 80%; Post-emergence action against ECHCG in % ([2]; dosage 80 g/ha): 90%; Pre-emergence action against SETVI in % (Setaria viridis (SETVI) [4]; dosage 80 g/ha): 100%; Pre-emergence action against POLCO in % ([17]; dosage 80 g/ha): 80%; Post-emergence action against PHBPU in % ([8]; dosage 80 g/ha): 80%; Post-emergence action against ALOMY in % ([22]; 80 g/ha): 90%; Post-emergence action against DIGSA in % [23]: 90%; Post-emergence action against ORYSA in % (Oryza sativa (ORYSA) [10]; 20 g/ha, effect vs untreated controls): 0%; Post-emergence action against ZEAMX in % (crop plant compatibility) (Zea mays (ZEAMX) [12]; 20 g/ha, ZEAMX, effect in comparison to untreated controls): 20%; Pre-emergence action against ALOMY ([26]; 80 g/ha): 100%; Pre-emergence action against VERPE in % [28]: 100%
O=C(O)C1CCCN1C(=O)COc1nn(-c2ccccn2)c(-c2ccc(F)nc2)c1Br (centres unmarked) [Example I-111] | 100 | 90 | – | 100 | 100 | 100 | 0 | 100 | 80 | 100 | 80 | 80 | 80 | 0 | 80 | – | 90 | – | 90 | 90 | Pre-emergence action against SETVI in % (Setaria viridis (SETVI) [4]; dosage 80 g/ha): 90%; Pre-emergence action against POLCO in % ([17]; dosage 80 g/ha): 80%; Pre-emergence action against ORYSA in % (Oryza sativa (ORYSA) [29]): 0%; Post-emergence action against ALOMY in % ([22]; 320 g/ha): 100%; Post-emergence action against ORYSA in % (Oryza sativa (ORYSA) [10]; [36]): 0%; Post-emergence action against TRZAS in % ([11]; 80 g/ha): 0%; Post-emergence action against POLCO in % ([25]; dosage 320 g/ha): 80%; Pre-emergence action against VERPE in % [28]: 90%
O=C(O)COc1nn(-c2ncccc2C(F)(F)F)c(-c2ccc(F)nc2)c1Br [Example I-310] | 100 | 90 | – | – | 100 | – | 10 | 100 | 90 | 90 | 80 | – | 90 | 0 | 80 | 80 | 100 | 80 | 80 | 80 | Post-emergence action against SETVI in % (Setaria viridis (SETVI) [16]; dosage 320 g/ha): 90%; Post-emergence action against VERPE in % [6]: 80%; Pre-emergence action against ORYSA in % (Oryza sativa (ORYSA) [29]): 0%; Post-emergence action against AVEFA in % (Avena fatua (AVEFA) [30]): 100%; Post-emergence action against ALOMY in % ([22]; 320 g/ha): 90%; Post-emergence action against ORYSA in % (Oryza sativa (ORYSA) [10]; [36]): 20%; Post-emergence action against ZEAMX in % (Zea mays (ZEAMX) [12]): 0%; Post-emergence action against LOLRI in % (Lolium rigidum (LOLRI) [31]): 90%; Post-emergence action against POLCO in % ([25]; dosage 320 g/ha): 80%; Post-emergence action against VIOTR in % (Viola tricolor (VIOTR) [27]; 320 g/ha): 90%
O=C(O)CSc1nn(-c2ccccn2)c(-c2cncc(F)c2)c1Cl [Example I-217] | 100 | 90 | 90 | 90 | 100 | 90 | 0 | 90 | – | 80 | 90 | 90 | – | – | – | 80 | – | 80 | 80 | 90 | Post-emergence action against MATIN in % [32]: 80%; Post-emergence action against ABUTH in % ([14]; 80 g/ha): 80%; Post-emergence action against ABUTH in % ([14]; 320 g/ha): 90%; Post-emergence action against SETVI in % (Setaria viridis (SETVI) [16]; dosage 80 g/ha): 80%; Post-emergence action against SETVI in % (Setaria viridis (SETVI) [16]; dosage 320 g/ha): 90%; Post-emergence action against ECHCG in % ([2]; dosage 80 g/ha): 90%; Pre-emergence action against MATIN in % ([19]; dosage 80 g/ha): 80%; Pre-emergence action against TRZAS in % [9]: 0%; Post-emergence action against AVEFA in % (Avena fatua (AVEFA) [30]): 90%; Post-emergence action against LOLRI in % (Lolium rigidum (LOLRI) [31]): 80%; Post-emergence action against POLCO in % ([25]; dosage 320 g/ha): 80%; Post-emergence action against VIOTR in % (Viola tricolor (VIOTR) [27]; 320 g/ha): 90%

Reference: US20240041042A1, “1-(PYRIDYL)-5-AZINYLPYRAZOLE DERIVATIVES, AND THEIR USE FOR CONTROL OF UNDESIRED PLANT GROWTH” (Bayer Aktiengesellschaft, priority 2020, published 2024)
